Earlier results, collected in patent US20080057086A1, “COLON-TARGETED ORAL FORMULATIONS OF CYTIDINE ANALOGS” (PHARMION CORPORATION, priority 2006, published 2008).

System: total hemoglobin, fetal hemoglobin and F cells
Details: sickle cell patients; oral THU 200 mg/d alone; cited from earlier work

**Q.** For `O=C1NC(O)CCN1[C@@H]1O[C@H](CO)[C@@H](O)[C@H]1O` (stereo partly shown) [THU, tetrahydrouridine], which F reticulocyte production is on record?
**A.** Its F reticulocyte production is “did not result in increased F reticulocyte production”.
